Targets include CHK2 (Homo sapiens, UniProt O96017); CLK3 (Homo sapiens, UniProt P49761); CaMKK2 (Homo sapiens, UniProt Q96RR4); DAPK3 (Homo sapiens, UniProt O43293); EpHA2 (Homo sapiens, UniProt P29317); MAPKAPK2 (Homo sapiens, UniProt P49137); MSK1b (Homo sapiens, UniProt O75582).
What all share (assay): biochemical
In another assay the target is T1, CASK (Homo sapiens, UniProt O14936).
T1 sequence (O14936 1-926): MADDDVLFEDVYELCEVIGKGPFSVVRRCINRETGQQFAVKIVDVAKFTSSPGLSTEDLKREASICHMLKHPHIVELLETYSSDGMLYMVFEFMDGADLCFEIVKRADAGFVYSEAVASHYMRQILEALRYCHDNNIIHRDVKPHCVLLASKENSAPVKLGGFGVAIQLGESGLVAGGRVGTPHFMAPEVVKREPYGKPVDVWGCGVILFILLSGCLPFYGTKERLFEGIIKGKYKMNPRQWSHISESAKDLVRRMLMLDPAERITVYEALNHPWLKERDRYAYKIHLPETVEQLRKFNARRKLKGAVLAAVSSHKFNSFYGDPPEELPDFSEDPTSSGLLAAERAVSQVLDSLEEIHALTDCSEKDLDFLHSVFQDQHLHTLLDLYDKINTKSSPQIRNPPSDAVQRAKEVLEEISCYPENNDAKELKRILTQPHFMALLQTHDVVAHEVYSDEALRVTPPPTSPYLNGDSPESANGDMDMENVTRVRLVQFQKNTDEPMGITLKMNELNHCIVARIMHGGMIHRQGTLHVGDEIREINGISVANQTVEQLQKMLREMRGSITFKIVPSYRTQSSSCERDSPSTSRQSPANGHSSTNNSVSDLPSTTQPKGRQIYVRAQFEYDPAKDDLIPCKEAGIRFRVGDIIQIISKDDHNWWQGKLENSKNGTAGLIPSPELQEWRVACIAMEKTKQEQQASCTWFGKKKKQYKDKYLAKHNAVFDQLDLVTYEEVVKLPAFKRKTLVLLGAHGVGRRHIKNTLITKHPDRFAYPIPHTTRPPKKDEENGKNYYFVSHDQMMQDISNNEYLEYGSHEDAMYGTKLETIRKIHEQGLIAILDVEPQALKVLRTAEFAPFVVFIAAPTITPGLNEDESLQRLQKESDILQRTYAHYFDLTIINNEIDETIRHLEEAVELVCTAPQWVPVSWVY

The next assay deals with T2, MAP3K5 (Homo sapiens, UniProt Q99683).
T2 sequence (Q99683 1-1374): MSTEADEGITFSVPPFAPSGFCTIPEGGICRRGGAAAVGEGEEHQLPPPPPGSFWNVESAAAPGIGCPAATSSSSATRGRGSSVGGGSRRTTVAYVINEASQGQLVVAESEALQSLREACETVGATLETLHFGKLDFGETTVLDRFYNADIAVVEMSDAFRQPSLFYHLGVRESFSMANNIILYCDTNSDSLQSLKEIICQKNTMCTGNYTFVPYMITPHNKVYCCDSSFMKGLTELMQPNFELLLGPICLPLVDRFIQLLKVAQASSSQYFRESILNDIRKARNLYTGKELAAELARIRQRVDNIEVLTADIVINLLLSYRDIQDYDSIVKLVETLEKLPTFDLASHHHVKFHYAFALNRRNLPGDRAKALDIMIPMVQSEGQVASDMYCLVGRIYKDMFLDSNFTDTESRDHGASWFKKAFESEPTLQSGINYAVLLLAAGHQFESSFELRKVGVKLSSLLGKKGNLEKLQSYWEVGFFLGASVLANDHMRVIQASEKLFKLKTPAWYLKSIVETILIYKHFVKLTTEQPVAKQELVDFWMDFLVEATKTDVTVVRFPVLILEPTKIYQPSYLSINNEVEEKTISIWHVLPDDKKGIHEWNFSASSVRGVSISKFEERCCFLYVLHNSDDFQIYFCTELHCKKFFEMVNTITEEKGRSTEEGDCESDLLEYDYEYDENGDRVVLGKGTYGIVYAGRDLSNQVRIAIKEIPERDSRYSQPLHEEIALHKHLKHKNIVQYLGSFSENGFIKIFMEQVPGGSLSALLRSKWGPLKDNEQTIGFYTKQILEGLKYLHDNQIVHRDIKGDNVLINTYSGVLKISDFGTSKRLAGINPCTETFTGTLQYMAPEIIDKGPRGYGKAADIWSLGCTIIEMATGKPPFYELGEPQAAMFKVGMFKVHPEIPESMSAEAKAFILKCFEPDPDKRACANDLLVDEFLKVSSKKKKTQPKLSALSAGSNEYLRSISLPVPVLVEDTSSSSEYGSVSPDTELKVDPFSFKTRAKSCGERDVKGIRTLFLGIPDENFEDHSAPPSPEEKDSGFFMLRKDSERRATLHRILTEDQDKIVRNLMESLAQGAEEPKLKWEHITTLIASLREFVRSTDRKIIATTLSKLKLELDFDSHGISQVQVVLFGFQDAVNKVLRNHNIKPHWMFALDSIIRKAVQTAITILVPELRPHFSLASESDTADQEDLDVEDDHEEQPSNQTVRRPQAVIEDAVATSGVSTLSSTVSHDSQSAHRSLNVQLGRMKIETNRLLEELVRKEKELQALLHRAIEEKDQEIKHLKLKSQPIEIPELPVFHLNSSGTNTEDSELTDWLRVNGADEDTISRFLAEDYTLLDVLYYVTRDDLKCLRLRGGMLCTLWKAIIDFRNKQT

Where two headings read alike, the source gives them in different places.

Sequence of DAPK3 (O43293 whole entry): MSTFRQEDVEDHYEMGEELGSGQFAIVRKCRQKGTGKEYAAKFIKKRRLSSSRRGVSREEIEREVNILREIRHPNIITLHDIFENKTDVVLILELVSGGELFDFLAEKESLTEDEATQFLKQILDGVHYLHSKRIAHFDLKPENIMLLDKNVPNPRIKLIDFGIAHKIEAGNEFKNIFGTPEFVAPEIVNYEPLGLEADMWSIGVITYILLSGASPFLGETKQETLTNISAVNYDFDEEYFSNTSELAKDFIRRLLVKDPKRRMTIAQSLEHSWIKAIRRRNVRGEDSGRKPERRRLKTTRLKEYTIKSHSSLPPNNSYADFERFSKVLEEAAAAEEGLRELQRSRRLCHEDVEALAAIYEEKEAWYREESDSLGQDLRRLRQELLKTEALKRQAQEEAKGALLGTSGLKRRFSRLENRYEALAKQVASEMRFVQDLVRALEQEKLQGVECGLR
Sequence of EpHA2 (P29317 whole entry): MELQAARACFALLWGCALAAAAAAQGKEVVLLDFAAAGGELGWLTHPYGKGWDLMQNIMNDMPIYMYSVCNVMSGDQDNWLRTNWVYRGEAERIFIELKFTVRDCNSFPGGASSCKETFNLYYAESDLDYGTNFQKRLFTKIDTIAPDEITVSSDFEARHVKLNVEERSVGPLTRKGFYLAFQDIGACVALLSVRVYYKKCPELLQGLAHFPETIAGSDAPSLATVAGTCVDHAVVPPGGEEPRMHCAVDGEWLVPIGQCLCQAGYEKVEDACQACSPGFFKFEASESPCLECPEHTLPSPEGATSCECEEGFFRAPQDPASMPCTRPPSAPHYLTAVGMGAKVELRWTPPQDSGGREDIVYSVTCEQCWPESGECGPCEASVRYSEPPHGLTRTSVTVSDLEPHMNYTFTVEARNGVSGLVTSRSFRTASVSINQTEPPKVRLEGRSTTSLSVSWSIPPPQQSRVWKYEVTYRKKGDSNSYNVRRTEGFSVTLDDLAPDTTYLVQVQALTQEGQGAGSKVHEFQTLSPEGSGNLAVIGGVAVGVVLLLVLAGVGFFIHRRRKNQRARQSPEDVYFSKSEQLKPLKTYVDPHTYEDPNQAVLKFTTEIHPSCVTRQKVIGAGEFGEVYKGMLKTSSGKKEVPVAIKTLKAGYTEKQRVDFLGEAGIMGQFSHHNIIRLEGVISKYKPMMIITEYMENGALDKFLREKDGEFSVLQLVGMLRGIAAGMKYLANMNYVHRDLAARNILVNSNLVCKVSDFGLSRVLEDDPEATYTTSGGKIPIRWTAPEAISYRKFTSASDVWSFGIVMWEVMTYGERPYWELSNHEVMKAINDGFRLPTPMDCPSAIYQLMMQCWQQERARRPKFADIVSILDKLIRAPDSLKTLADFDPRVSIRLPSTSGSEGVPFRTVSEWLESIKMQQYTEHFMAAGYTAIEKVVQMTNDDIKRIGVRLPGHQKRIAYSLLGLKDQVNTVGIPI
Sequence of CHK2 (O96017 whole entry): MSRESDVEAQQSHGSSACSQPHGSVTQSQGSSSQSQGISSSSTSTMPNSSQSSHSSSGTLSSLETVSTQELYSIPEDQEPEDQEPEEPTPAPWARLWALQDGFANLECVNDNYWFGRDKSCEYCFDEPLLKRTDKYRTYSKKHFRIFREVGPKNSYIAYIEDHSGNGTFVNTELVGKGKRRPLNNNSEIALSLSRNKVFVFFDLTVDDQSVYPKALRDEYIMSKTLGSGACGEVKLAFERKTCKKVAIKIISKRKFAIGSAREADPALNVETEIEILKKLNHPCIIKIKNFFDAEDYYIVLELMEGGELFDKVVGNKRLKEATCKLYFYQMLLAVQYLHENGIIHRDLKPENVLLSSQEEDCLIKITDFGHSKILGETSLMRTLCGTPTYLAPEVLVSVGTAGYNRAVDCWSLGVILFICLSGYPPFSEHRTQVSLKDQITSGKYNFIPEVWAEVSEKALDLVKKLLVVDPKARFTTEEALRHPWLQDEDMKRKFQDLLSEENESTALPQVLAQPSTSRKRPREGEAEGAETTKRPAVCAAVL
Sequence of MAPKAPK2 (P49137 whole entry): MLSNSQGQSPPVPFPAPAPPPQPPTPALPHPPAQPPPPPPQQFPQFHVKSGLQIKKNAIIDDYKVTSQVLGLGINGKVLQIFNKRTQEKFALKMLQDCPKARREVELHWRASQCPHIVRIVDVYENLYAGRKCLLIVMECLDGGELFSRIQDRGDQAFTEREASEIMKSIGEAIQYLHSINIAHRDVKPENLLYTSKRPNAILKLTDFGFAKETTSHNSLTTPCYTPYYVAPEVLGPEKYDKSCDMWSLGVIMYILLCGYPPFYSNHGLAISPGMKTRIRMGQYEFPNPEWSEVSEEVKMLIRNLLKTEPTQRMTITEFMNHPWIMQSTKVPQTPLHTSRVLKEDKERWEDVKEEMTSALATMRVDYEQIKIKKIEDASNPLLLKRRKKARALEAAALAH
Sequence of CaMKK2 (Q96RR4 whole entry): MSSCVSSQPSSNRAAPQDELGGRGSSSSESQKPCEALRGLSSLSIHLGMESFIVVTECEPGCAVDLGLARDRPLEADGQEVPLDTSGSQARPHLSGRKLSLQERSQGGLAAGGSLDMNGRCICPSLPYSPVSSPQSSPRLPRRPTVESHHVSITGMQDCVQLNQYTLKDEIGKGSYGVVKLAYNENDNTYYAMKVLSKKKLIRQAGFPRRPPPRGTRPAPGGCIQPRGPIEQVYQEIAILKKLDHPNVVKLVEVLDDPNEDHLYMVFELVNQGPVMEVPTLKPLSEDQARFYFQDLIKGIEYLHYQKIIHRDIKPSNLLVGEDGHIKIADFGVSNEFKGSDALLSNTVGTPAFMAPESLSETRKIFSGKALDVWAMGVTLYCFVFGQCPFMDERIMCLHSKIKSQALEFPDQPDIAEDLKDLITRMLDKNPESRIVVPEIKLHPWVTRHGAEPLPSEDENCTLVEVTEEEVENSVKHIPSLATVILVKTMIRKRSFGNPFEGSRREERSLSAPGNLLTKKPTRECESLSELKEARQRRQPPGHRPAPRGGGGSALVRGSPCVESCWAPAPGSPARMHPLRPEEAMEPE
Sequence of CLK3 (P49761 whole entry): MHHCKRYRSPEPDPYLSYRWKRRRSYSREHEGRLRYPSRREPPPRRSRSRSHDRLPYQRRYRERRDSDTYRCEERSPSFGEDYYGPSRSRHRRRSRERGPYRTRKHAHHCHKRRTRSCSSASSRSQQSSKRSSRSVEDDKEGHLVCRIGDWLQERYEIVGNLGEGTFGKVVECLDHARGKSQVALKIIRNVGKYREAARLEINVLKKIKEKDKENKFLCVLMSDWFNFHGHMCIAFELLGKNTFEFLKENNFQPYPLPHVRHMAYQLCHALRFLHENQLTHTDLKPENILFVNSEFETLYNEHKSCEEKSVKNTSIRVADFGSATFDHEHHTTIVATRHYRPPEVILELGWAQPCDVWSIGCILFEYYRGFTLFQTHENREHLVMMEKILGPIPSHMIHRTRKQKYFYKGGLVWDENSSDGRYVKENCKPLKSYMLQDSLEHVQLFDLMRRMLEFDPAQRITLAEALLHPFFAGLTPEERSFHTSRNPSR
Sequence of MSK1b (O75582 whole entry): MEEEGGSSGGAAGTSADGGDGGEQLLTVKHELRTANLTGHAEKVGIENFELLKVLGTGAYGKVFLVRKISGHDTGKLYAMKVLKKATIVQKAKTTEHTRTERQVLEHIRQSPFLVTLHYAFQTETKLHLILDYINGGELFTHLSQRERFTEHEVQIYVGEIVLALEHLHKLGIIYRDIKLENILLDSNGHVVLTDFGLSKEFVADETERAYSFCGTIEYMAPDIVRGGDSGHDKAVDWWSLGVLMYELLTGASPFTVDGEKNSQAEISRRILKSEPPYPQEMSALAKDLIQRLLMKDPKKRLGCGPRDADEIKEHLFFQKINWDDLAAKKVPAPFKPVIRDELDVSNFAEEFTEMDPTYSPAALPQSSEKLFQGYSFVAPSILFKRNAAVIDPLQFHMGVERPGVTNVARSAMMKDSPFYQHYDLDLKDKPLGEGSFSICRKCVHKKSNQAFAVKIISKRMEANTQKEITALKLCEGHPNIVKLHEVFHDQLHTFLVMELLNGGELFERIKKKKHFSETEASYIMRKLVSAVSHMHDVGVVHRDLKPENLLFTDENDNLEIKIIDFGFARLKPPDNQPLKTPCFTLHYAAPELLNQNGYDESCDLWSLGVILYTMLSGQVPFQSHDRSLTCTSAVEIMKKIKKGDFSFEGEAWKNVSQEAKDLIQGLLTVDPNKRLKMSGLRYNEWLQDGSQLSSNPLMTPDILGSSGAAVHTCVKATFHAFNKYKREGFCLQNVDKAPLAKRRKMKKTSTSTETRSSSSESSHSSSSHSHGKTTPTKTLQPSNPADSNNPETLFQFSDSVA

For the molecule `CNc1ncc2cc(-c3cc(Cl)ccc3Cl)c(=O)n(CCCCN)c2n1` [compound 8, 8-(4-Aminobutyl)-6-(2,5-dichlorophenyl)-2-(methylamino)pyrido[2,3-d]pyrimidin-7(8H)-one], the ΔTm at 10 µM on CASK (read-out: dTm 8) was -0.2 °C; at CHK2 (read-out: dTm 8), 0.4 °C; at CLK3 (read-out: dTm 8), 0.4 °C; on CaMKK2 (read-out: dTm 8) it was 0.6 °C; at DAPK3 (read-out: dTm 8), -0.1 °C; at EpHA2 (read-out: dTm 8) it was 7.1 °C. In addition, the ΔTm at 10 µM on MAP3K5 (read-out: dTm 8) is 1.5 °C; at MAPKAPK2 (read-out: dTm 8), 0 °C; at MSK1b (read-out: dTm 8) it was 2.1 °C.
In the case of `CNc1ncc2cc(-c3cc(Br)ccc3Br)c(=O)n(CCCCN)c2n1` [compound 11, 8-(4-Aminobutyl)-6-(2,5-dibromophenyl)-2-(methylamino)pyrido[2,3-d]pyrimidin-7(8H)-one], the ΔTm at 10 µM at CASK (read-out: dTm 11) was -0.3 °C; at CHK2 (read-out: dTm 11), 0.4 °C; at CLK3 (read-out: dTm 11), 0.4 °C; on CaMKK2 (read-out: dTm 11), 0.6 °C; on DAPK3 (read-out: dTm 11), -0.2 °C; at EpHA2 (read-out: dTm 11), 6.4 °C. Also, the ΔTm at 10 µM on MAP3K5 (read-out: dTm 11) stood at 1.6 °C; at MAPKAPK2 (read-out: dTm 11), 0 °C; at MSK1b (read-out: dTm 11), 2 °C.
Consider `CNc1ncc2cc(-c3cc(C(F)(F)F)ccc3Cl)c(=O)n(CCCCN)c2n1` [compound 9, 8-(4-Aminobutyl)-6-(2-chloro-5-(trifluoromethyl)phenyl)-2-(methylamino)pyrido[2,3-d]pyrimidin-7(8H)-one], for which the ΔTm at 10 µM on CASK (read-out: dTm 9) is -0.1 °C; on CHK2 (read-out: dTm 9), 0.5 °C; at CLK3 (read-out: dTm 9), 0.4 °C; on CaMKK2 (read-out: dTm 9) it was 0.4 °C; at DAPK3 (read-out: dTm 9) it was -0.1 °C; at EpHA2 (read-out: dTm 9) it was 4.8 °C. The ΔTm at 10 µM at MAP3K5 (read-out: dTm 9) is 0.4 °C; on MAPKAPK2 (read-out: dTm 9), -0.1 °C; on MSK1b (read-out: dTm 9), 0.9 °C.
Turning to `CNc1ncc2cc(-c3cc(F)c(-c4cccc(C)n4)cc3F)c(=O)n(CCCCN)c2n1` [compound 12, 8-(4-Aminobutyl)-6-(2,5-difluoro-4-(6-methylpyridin-2-yl)phenyl)-2-(methylamino)pyrido[2,3-d]pyrimidin-7(8H)-one], the ΔTm at 10 µM at CASK (read-out: dTm 12) is -0.2 °C; at CHK2 (read-out: dTm 12), 3.3 °C; on CLK3 (read-out: dTm 12), -0.3 °C; at CaMKK2 (read-out: dTm 12) it was 0 °C; on DAPK3 (read-out: dTm 12) it was 0.3 °C; at EpHA2 (read-out: dTm 12) it was 3.9 °C. The ΔTm at 10 µM is 9.1 °C at MAP3K5 (read-out: dTm 12), -0.3 °C on MAPKAPK2 (read-out: dTm 12) and 1 °C on MSK1b (read-out: dTm 12).
For `CNc1ncc2cc(-c3cc(Cl)ccc3Br)c(=O)n(CCCCN)c2n1` [compound 10, 8-(4-Aminobutyl)-6-(2-bromo-5-chlorophenyl)-2-(methylamino)pyrido[2,3-d]pyrimidin-7(8H)-one], the ΔTm at 10 µM on CASK (read-out: dTm 10) is 0 °C; at CHK2 (read-out: dTm 10), 0.2 °C; on CLK3 (read-out: dTm 10), 0.4 °C; on CaMKK2 (read-out: dTm 10), 0.7 °C; on DAPK3 (read-out: dTm 10) it was 0.1 °C; at EpHA2 (read-out: dTm 10) it was 7.4 °C. Also, the results for the ΔTm at 10 µM at MAP3K5 (read-out: dTm 10), on MAPKAPK2 (read-out: dTm 10) and on MSK1b (read-out: dTm 10) were 1.7 °C, 0 °C and 2.1 °C, respectively.

(Values after doi:10.1101/2023.03.24.534094v2 (biorxiv, 2023).)
